Experimental data from ChEMBL document CHEMBL1949669, “Imidazopyridines as selective CYP3A4 inhibitors” (Bioorg Med Chem Lett, 2012).
Converted amounts (≈) assume the structure as drawn.

Legend:
[1] = Solubility of the compound; assay type: physicochemical
[2] = Half life in human hepatic S9 fraction; assay type: ADME, subcellular, Liver
[3] = Half life in human liver microsomes; assay type: ADME, Microsome

Structure (SMILES)	solubility [1]	half-life [2]	half-life [3]
O=C(Nc1ccc(-c2ccccc2)cc1)Nc1ccc(-c2ccnc3[nH]cnc23)cc1	2 µM (≈ 0.811 µg/mL)		
CCOC(=O)c1cccc(NC(=O)Nc2ccc(-c3ccnc4[nH]cnc34)cc2)c1		8 min	8 min
